Reference: EP0092073A1, “Magnesium salt of chenodeoxycholic acid and ursodeoxycholic acid, the process for its preparation, and therapeutic compositions which contain it as active principle” (SCHWARZ ITALIA S.p.A., priority 1982, dated 1983)

Legend:
dog = assay: Acute lethality and toxicity, oral administration (gastric probe); assay type: in vivo; parameters: key to Toxic symptomatology Type: NN = no symptomatology; D = depression; details: for % mortality at following times after administration 24 h / % mortality at following times after administration 7 days / Toxic symptomatology Type / Toxic symptomatology Latency: oral; for LD50 (mg/kg with reliability limits) 7 days after treatment: po, also printed as greater than 600 Dts/kg
Solubility = assay type: physicochemical
[1] = Hydrolysis by the gastric juice; details: prodrug supplying its two component acids
Mus musculus = assay: Lethality and toxicity, endoperitoneal administration; assay type: in vivo; parameters: key to Toxic symptomatology Type: NN = no symptomatology; D = depression; details: for % mortality at the following times after administration 24 h / % mortality at the following times after administration 7 days / Toxic symptomatology Latency / Toxic symptomatology Type: endoperitoneal; for LD50 (mg/kg with reliability limits) 7 days after treatment: ip, probit method
Procedure: (§1) Unless otherwise specified, the research was carried out using: a) Mg-UCD capsules as such; b) the powdered contents of Mg-UCD capsules; CDCA (chenodeoxycholic acid) and UDCA (ursodeoxycholic acid) as pure substance which in all cases was partly dissolved and partly suspended under warm conditions (T = 30°C) in 10% gum arabic mucilage (so as to administer 10-40 ml of liquid per kg orally). In certain cases, namely in the experiments involving parenteral administration, the active principle of Mg-UCD, the chenodeoxycholic acid and ursodeoxycholic acid were dissolved in distilled water of slightly alkaline pH (5-10 ml/kg).
(§2) The generally acute lethality, toxicity and tolerability were determined by oral administration of the Mg-UCD (by gastric probe) in the Mus musculus, rat and dog. Animals of both sexes were used, none of which were pregnant. They were fasted for about 12 hours before treatment (but allowing them free access to water). The investigations were carried out using the Mg-UCD in powder form. Comparative investigations were carried out on the rat and Mus musculus using the active principle by endoperitoneal administration, and chenodeoxycholic acid and ursodeoxycholic acid by oral administration (using a gastric probe). Each dose was administered to 20 rats or Mus musculus (10 male and 10 female) and to eight dogs (4 male and 4 female). The animals were observed attentively during the 7 days following administration, and any lethality, toxic symptoms, disturbances, functional variations determinable with the eye, behaviour etc. were noted.
(§3) The LD50 was determined 7 days after administration using the probit method.

rat = assay: as above; assay type: in vivo; parameters: key to Toxic symptomatology Type: NN = no symptomatology; D = depression; details: for % mortality at the following times after administration 24 h / % mortality at the following times after administration 7 days / Toxic symptomatology Latency / Toxic symptomatology Type: endoperitoneal; for LD50 (mg/kg with reliability limits) 7 days after treatment: ip, probit method
Procedure: as §1, §2, §3

For “double magnesium salt of chenodeoxycholic acid and ursodeoxycholic acid [Mg-UCD]”, which “% mortality at following times after administration 24 h” value (dog; Dog F, 250 mg/kg (60 Dts/kg)) is on record?
Its value is 0%.

What about the “% mortality at following times after administration 7 days” value (dog; Dog F, 250 mg/kg (60 Dts/kg)) of the same substance?
The value was 0%.

What about the “Toxic symptomatology Type” value (dog; Dog F, 250 mg/kg (60 Dts/kg)) of the same substance?
Its value is “NN”.

And the “% mortality at following times after administration 24 h” value (dog; Dog F, 2500 mg/kg (600 Dts/kg))?
Its value is 0%.

What about the “% mortality at following times after administration 7 days” value (dog; Dog F, 2500 mg/kg (600 Dts/kg)) of the same substance?
The value was 0%.

And the “Toxic symptomatology Latency” value (dog; Dog F, 2500 mg/kg (600 Dts/kg))?
Its value is 5-10 min.

What about the “Toxic symptomatology Type” value (dog; Dog F, 2500 mg/kg (600 Dts/kg)) of the same substance?
Its value is “D”.

What about the “LD50 (mg/kg with reliability limits) 7 days after treatment” value (dog; Dog F) of the same substance?
Its value is “greater than 2500 mg/kg (greater than 600 Dts/kg)”.

What about the “% mortality at following times after administration 24 h” value (dog; Dog M, 250 mg/kg (60 Dts/kg)) of the same substance?
The value was 0%.

And the “% mortality at following times after administration 7 days” value (dog; Dog M, 250 mg/kg (60 Dts/kg))?
The value was 0%.

And the “Toxic symptomatology Type” value (dog; Dog M, 250 mg/kg (60 Dts/kg))?
The value was “NN”.

What about the “% mortality at following times after administration 24 h” value (dog; Dog M, 2500 mg/kg (600 Dts/kg)) of the same substance?
Its value is 0%.

And the “% mortality at following times after administration 7 days” value (dog; Dog M, 2500 mg/kg (600 Dts/kg))?
Its value is 0%.

And the “Toxic symptomatology Latency” value (dog; Dog M, 2500 mg/kg (600 Dts/kg))?
Its value is 5-10 min.

And the “Toxic symptomatology Type” value (dog; Dog M, 2500 mg/kg (600 Dts/kg))?
The value was “D”.

And the “LD50 (mg/kg with reliability limits) 7 days after treatment” value (dog; Dog M)?
Its value is “greater than 2500 mg/kg (greater than 600 Dts/kg)”.

And the “any case of death or any significant toxic symptomatology” value (dog; dog, oral (gastric probe), 7 days following treatment, individual doses up to 2500 mg/kg of active principle (600 Dts/kg))?
The value was “does not show”.

And the Solubility (Solubility; in alcohol)?
Its Solubility is “fairly soluble in alcohol”.

And the Solubility (Solubility; in water, listed as Mg salt)?
The Solubility was “practically insoluble in water”.

And the Solubility (Solubility; in water, listed as double salt)?
The Solubility was “insoluble in water”.

What about the “hydrolysis by the gastric juice” value [1] of the same substance?
The value was “hydrolysed slowly”.

What about the “% mortality at the following times after administration 24 h” value (Mus musculus; M. musculus F, 1000 mg/kg) of the same substance?
Its value is 0%.

And the “% mortality at the following times after administration 7 days” value (Mus musculus; M. musculus F, 1000 mg/kg)?
The value was 0%.

And the “Toxic symptomatology Latency” value (Mus musculus; M. musculus F, 1000 mg/kg)?
The value was 1-2 min.

And the “Toxic symptomatology Type” value (Mus musculus; M. musculus F, 1000 mg/kg)?
Its value is “D”.

And the “% mortality at the following times after administration 24 h” value (Mus musculus; M. musculus F, 2000 mg/kg)?
Its value is 10%.

What about the “% mortality at the following times after administration 7 days” value (Mus musculus; M. musculus F, 2000 mg/kg) of the same substance?
Its value is 10%.

And the “Toxic symptomatology Latency” value (Mus musculus; M. musculus F, 2000 mg/kg)?
The value was 1-2 min.

And the “Toxic symptomatology Type” value (Mus musculus; M. musculus F, 2000 mg/kg)?
Its value is “D”.

And the “% mortality at the following times after administration 24 h” value (Mus musculus; M. musculus F, 4000 mg/kg)?
The value was 70%.

And the “% mortality at the following times after administration 7 days” value (Mus musculus; M. musculus F, 4000 mg/kg)?
Its value is 70%.

What about the “Toxic symptomatology Latency” value (Mus musculus; M. musculus F, 4000 mg/kg) of the same substance?
The value was 1-2 min.

What about the “Toxic symptomatology Type” value (Mus musculus; M. musculus F, 4000 mg/kg) of the same substance?
Its value is “D”.

And the “LD50 (mg/kg with reliability limits) 7 days after treatment” value (Mus musculus; M. musculus F)?
Its value is 2455 (1984-3039) mg/kg.

What about the “% mortality at the following times after administration 24 h” value (Mus musculus; M. musculus M, 1000 mg/kg) of the same substance?
Its value is 0%.

And the “% mortality at the following times after administration 7 days” value (Mus musculus; M. musculus M, 1000 mg/kg)?
The value was 0%.

What about the “Toxic symptomatology Latency” value (Mus musculus; M. musculus M, 1000 mg/kg) of the same substance?
The value was 1-2 min.

And the “Toxic symptomatology Type” value (Mus musculus; M. musculus M, 1000 mg/kg)?
The value was “D”.

What about the “% mortality at the following times after administration 24 h” value (Mus musculus; M. musculus M, 2000 mg/kg) of the same substance?
The value was 10%.

What about the “% mortality at the following times after administration 7 days” value (Mus musculus; M. musculus M, 2000 mg/kg) of the same substance?
The value was 10%.

What about the “Toxic symptomatology Latency” value (Mus musculus; M. musculus M, 2000 mg/kg) of the same substance?
Its value is 1-2 min.

And the “Toxic symptomatology Type” value (Mus musculus; M. musculus M, 2000 mg/kg)?
The value was “D”.

And the “% mortality at the following times after administration 24 h” value (Mus musculus; M. musculus M, 4000 mg/kg)?
Its value is 60%.

And the “% mortality at the following times after administration 7 days” value (Mus musculus; M. musculus M, 4000 mg/kg)?
The value was 60%.

And the “Toxic symptomatology Latency” value (Mus musculus; M. musculus M, 4000 mg/kg)?
Its value is 1-2 min.

And the “Toxic symptomatology Type” value (Mus musculus; M. musculus M, 4000 mg/kg)?
Its value is “D”.

What about the “LD50 (mg/kg with reliability limits) 7 days after treatment” value (Mus musculus; M. musculus M) of the same substance?
Its value is 2455 (1984-3039) mg/kg.

And the “% mortality at the following times after administration 24 h” value (rat; Rat F, 1000 mg/kg)?
Its value is 0%.

And the “% mortality at the following times after administration 7 days” value (rat; Rat F, 1000 mg/kg)?
Its value is 0%.

What about the “Toxic symptomatology Latency” value (rat; Rat F, 1000 mg/kg) of the same substance?
The value was 1-2 min.

And the “Toxic symptomatology Type” value (rat; Rat F, 1000 mg/kg)?
Its value is “D”.

What about the “% mortality at the following times after administration 24 h” value (rat; Rat F, 2000 mg/kg) of the same substance?
The value was 10%.

And the “% mortality at the following times after administration 7 days” value (rat; Rat F, 2000 mg/kg)?
Its value is 10%.

What about the “Toxic symptomatology Latency” value (rat; Rat F, 2000 mg/kg) of the same substance?
The value was 1-2 min.

And the “Toxic symptomatology Type” value (rat; Rat F, 2000 mg/kg)?
Its value is “D”.

What about the “% mortality at the following times after administration 24 h” value (rat; Rat F, 4000 mg/kg) of the same substance?
The value was 60%.

What about the “% mortality at the following times after administration 7 days” value (rat; Rat F, 4000 mg/kg) of the same substance?
The value was 60%.

And the “Toxic symptomatology Latency” value (rat; Rat F, 4000 mg/kg)?
Its value is 1-2 min.

And the “Toxic symptomatology Type” value (rat; Rat F, 4000 mg/kg)?
The value was “D”.

And the “LD50 (mg/kg with reliability limits) 7 days after treatment” value (rat; Rat F)?
Its value is 2449 (2063-2906) mg/kg.

And the “% mortality at the following times after administration 24 h” value (rat; Rat M, 1000 mg/kg)?
The value was 0%.

And the “% mortality at the following times after administration 7 days” value (rat; Rat M, 1000 mg/kg)?
The value was 0%.

And the “Toxic symptomatology Latency” value (rat; Rat M, 1000 mg/kg)?
The value was 1-2 min.

What about the “Toxic symptomatology Type” value (rat; Rat M, 1000 mg/kg) of the same substance?
The value was “D”.

And the “% mortality at the following times after administration 24 h” value (rat; Rat M, 2000 mg/kg)?
The value was 10%.

And the “% mortality at the following times after administration 7 days” value (rat; Rat M, 2000 mg/kg)?
The value was 10%.

And the “Toxic symptomatology Latency” value (rat; Rat M, 2000 mg/kg)?
The value was 1-2 min.

And the “Toxic symptomatology Type” value (rat; Rat M, 2000 mg/kg)?
The value was “D”.

And the “% mortality at the following times after administration 24 h” value (rat; Rat M, 4000 mg/kg)?
Its value is 70%.

What about the “% mortality at the following times after administration 7 days” value (rat; Rat M, 4000 mg/kg) of the same substance?
Its value is 70%.

What about the “Toxic symptomatology Latency” value (rat; Rat M, 4000 mg/kg) of the same substance?
Its value is 1-2 min.

And the “Toxic symptomatology Type” value (rat; Rat M, 4000 mg/kg)?
Its value is “D”.

And the “LD50 (mg/kg with reliability limits) 7 days after treatment” value (rat; Rat M)?
Its value is 2288 (1902-2751) mg/kg.
